{"source": "patent US20040006048A1", "about": "“Combination of lecithin with ascorbic acid” (priority 2002, published 2004)", "assay_type_in_all_cases": "in vivo", "key": {"normal rats": {"test_system": "normal rats", "assay": "Learning process of normal rats in water labyrinth", "settings": "for Number of errors Mean ± S.E.M. / Swimming time (sec) Mean ± SEM.: p.o., Vit.-C 2 × 10, Lecithin 2 × 30, combination 2 × (30 + 10) mg/kg/day", "text": "Ascorbic acid and lecithin were ineffective when they were given separately (Table I.)."}, "normal mice": {"test_system": "normal mice", "assay": "Swimming test, physical performance of normal mice", "settings": "for Swimming time (sec) mean ± S.E.M.: p.o., Vit-C 2 × 10, Lecithin 2 × 30, combination 2 × (30 + 10) mg/kg/day", "text": "In the study ascorbic acid was ineffective, when it was given in itself (Table III.)."}, "[1]": {"test_system": "rats in scopolamine induced memory deficit", "assay": "Scopolamine induced memory deficit, water labyrinth learning test", "settings": "scopolamine model, combination 2 × (30 + 10) mg/kg/day p.o."}, "[2]": {"settings": "versus vehicle (control) and single components"}}, "data": [{"smiles": "O=C1O[C@H]([C@@H](O)CO)C(O)=C1O", "note": "[Vit.-C, ascorbic acid]", "values": [{"measurement": "Number of errors Mean ± S.E.M.", "setting": "normal rats; session 1", "result": "16.4 ± 0.45"}, {"measurement": "Swimming time (sec) Mean ± SEM.", "setting": "normal rats; session 1", "result": "140.3 ± 9.54", "unit": "s"}, {"measurement": "Number of errors Mean ± S.E.M.", "setting": "normal rats; session 2", "result": "11.6 ± 0.40"}, {"measurement": "Swimming time (sec) Mean ± SEM.", "setting": "normal rats; session 2", "result": "89.9 ± 6.22", "unit": "s"}, {"measurement": "Number of errors Mean ± S.E.M.", "setting": "normal rats; session 3", "result": "6.2 ± 0.76"}, {"measurement": "Swimming time (sec) Mean ± SEM.", "setting": "normal rats; session 3", "result": "64.9 ± 7.29", "unit": "s"}, {"measurement": "Number of errors Mean ± S.E.M.", "setting": "normal rats; session 4", "result": "3.9 ± 0.35"}, {"measurement": "Swimming time (sec) Mean ± SEM.", "setting": "normal rats; session 4", "result": "34.8 ± 2.79", "unit": "s"}, {"measurement": "Effect on the learning process of rats in water labyrinth (in words)", "setting": "normal rats; [2]", "result": "ineffective"}, {"measurement": "Swimming time (sec) mean ± S.E.M.", "setting": "normal mice; 1. day starting values", "result": "76.2 ± 3.7", "unit": "s"}, {"measurement": "Swimming time (sec) mean ± S.E.M.", "setting": "normal mice; 2. day", "result": "70.8 ± 3.8", "unit": "s"}, {"measurement": "Swimming time (sec) mean ± S.E.M.", "setting": "normal mice; 3. day", "result": "82.2 ± 3.4", "unit": "s"}, {"measurement": "Swimming time (sec) mean ± S.E.M.", "setting": "normal mice; 4. day", "result": "88.8 ± 6.1", "unit": "s"}, {"measurement": "Swimming time (sec) mean ± S.E.M.", "setting": "normal mice; 5. day", "result": "90.0 ± 6.9", "unit": "s"}, {"measurement": "Effect on the physical performance of mice in swimming test (in words)", "setting": "normal mice; [2]", "result": "ineffective"}]}, {"smiles": "CN1[C@@H]2C[C@@H](OC(=O)[C@H](CO)c3ccccc3)C[C@H]1[C@@H]1O[C@@H]12", "note": "[Scopolamine, scopolamine]", "values": [{"measurement": "Number of errors Mean ± S.E.M.", "setting": "[1]; session 1", "result": "16.2 ± 0.83"}, {"measurement": "Swimming time (sec) mean ± S.E.M.", "setting": "[1]; session 1", "result": "114.7 ± 9.45", "unit": "s"}, {"measurement": "Number of errors Mean ± S.E.M.", "setting": "[1]; session 2", "result": "11.6 ± 0.52^++"}, {"measurement": "Swimming time (sec) mean ± S.E.M.", "setting": "[1]; session 2", "result": "73.7 ± 6.22", "unit": "s"}, {"measurement": "Number of errors Mean ± S.E.M.", "setting": "[1]; session 3", "result": "8.9 ± 0.41^++"}, {"measurement": "Number of errors Mean ± S.E.M.", "setting": "[1]; session 4", "result": "6.3 ± 0.26^++"}]}]}
